Experimental data from US11111233B2, “Amino pyrimidine compound for inhibiting protein tyrosine kinase activity” (Shenzhen TargetRx, Inc., priority 2016, dated 2021).
Read-outs that look alike come from different tables or passages of the source.

Columns and labels:
[1] = system: lung cancer cells HCC827 (Del19); experiment: Cytotoxicity test (MTS cell viability), HCC827; type: cell-based; conditions: Homo sapiens
[2] = biological target: WT EGFR (Homo sapiens (Human), UniProt P00533); experiment: Kinase inhibition assay (HTRF), WT EGFR; type: biochemical; conditions: HTRF Kinase TK kit, 10 min pre-incubation, 20 min reaction
[3] = biological target: EGFR [L858R/T790M] (Homo sapiens (Human), UniProt P00533, L858R/T790M); experiment: Kinase inhibition assay (HTRF), EGFR [L858R/T790M]; type: biochemical; conditions: HTRF Kinase TK kit, 10 min pre-incubation, 20 min reaction; read-out: EGFR(L858R/T790M) IC50
[4] = system: Skin cancer cell line A431 (WT); experiment: Cytotoxicity test (MTS cell viability), A431; type: cell-based; conditions: Homo sapiens
[5] = HCC827, 72 h, read-out: HCC827 (Del19) IC50(nM)
[6] = A-431, MTS, 72 hours, read-out: A431 (WT) IC50
[7] = HCC827, MTS, 72 hours, read-out: HCC827 (Del19) IC50

Sequence of WT EGFR (P00533 25-1210): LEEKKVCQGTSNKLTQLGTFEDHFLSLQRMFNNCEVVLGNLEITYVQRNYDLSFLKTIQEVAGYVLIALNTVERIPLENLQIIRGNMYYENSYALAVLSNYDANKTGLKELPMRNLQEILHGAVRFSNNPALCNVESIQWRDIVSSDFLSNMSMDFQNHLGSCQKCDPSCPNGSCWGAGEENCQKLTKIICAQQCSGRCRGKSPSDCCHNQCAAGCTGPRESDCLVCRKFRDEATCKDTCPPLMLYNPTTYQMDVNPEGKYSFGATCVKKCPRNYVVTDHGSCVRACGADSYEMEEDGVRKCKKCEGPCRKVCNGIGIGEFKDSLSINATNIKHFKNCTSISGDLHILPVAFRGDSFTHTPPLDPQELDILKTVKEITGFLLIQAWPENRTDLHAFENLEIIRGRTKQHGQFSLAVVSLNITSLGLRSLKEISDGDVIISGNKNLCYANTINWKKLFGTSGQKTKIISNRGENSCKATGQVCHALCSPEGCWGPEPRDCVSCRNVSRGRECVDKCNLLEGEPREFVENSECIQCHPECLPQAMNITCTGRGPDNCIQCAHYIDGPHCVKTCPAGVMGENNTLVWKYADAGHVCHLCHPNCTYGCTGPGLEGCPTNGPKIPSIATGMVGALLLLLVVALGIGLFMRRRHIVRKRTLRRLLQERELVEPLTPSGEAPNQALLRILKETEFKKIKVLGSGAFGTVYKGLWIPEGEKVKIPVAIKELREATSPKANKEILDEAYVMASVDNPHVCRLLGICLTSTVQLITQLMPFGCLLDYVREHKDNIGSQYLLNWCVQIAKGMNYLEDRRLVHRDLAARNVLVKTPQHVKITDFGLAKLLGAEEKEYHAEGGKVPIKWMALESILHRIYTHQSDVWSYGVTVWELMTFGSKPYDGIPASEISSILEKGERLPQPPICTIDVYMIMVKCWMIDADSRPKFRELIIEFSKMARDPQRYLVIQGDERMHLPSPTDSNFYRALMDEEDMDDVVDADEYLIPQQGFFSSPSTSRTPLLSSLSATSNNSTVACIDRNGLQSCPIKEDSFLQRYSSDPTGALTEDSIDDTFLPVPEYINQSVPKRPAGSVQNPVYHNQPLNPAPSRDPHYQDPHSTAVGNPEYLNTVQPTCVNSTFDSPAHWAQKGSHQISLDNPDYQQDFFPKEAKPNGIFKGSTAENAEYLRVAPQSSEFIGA
Sequence of EGFR [L858R/T790M] (P00533 25-1210 T790M/L858R): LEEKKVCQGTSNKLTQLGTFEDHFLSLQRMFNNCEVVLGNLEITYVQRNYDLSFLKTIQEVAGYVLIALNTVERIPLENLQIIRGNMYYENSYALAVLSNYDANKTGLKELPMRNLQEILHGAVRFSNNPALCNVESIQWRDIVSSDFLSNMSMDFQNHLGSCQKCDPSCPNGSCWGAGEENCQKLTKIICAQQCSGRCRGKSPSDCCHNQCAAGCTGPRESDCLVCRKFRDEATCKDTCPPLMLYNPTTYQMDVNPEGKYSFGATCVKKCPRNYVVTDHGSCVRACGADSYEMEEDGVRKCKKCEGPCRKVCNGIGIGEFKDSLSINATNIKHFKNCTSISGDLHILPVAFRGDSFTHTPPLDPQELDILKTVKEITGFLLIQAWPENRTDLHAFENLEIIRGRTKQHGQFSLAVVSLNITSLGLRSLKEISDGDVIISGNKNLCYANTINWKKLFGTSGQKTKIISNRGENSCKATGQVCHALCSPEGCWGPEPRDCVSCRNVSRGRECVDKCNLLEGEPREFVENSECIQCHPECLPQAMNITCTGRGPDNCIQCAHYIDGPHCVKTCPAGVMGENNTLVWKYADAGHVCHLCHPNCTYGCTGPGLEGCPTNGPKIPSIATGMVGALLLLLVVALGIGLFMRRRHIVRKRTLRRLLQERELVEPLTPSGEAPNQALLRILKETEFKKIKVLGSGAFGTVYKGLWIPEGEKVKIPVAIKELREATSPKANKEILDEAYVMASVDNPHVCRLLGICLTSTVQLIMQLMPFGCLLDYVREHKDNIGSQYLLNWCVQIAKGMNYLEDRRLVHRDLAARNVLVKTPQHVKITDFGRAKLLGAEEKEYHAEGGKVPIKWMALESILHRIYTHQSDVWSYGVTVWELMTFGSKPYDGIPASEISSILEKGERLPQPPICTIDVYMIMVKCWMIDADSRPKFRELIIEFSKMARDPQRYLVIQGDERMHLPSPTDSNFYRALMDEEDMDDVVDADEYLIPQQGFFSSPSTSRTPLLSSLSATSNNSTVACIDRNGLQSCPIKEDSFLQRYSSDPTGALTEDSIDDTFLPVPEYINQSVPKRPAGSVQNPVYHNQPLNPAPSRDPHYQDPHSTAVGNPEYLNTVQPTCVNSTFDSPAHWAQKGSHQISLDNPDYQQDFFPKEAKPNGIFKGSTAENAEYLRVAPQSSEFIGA

Compound	IC50 [1, 5]	IC50 [2]	IC50 [3]	IC50 [4, 6]	IC50 [1, 7]	IC50 ([4]; A-431, 72 h, read-out: A431 (WT) IC50(nM))
C=CC(=O)Nc1cc(Nc2nccc(-c3cc(F)c4nc(C)n(C(C)C)c4c3)n2)c(OC)cc1N1CCC(O)CC1 [Example 17, N-(2-(4-hydroxypiperidine-1-yl)-5-((4-(4-fluoro-1-isopropyl-2-methyl-1H-benzo[d]imidazole-6-yl)pyrimidin-2-yl)amino)-4-methoxyphenyl)acrylamide]	100 to 400 nM	> 100 nM	1 to 50 nM	> 1000 nM	–	–
C=CC(=O)Nc1cc(Nc2nccc(-c3cc(F)c4nc(C)n(C5CC5)c4c3)n2)c(OC)cc1N(C)CCN(C)C [Example 20, N-(5-((4-(1-cyclopropyl-4-fluoro-2-methyl-1H-benzo[d]imidazole-6-yl)pyrimidin-2-yl)amino)-2-((2-(dimethylamino)ethyl)(methyl)amino)-4-methoxyphenyl)acrylamide]	–	1 to 50 nM	< 1 nM	100 to 400 nM	10 to 100 nM	–
C=CC(=O)Nc1cc(Nc2nccc(-c3cc(F)c4nc(CF)n(C(C)C)c4c3)n2)c(OC)cc1N(C)CCN(C)C [Example 21, N-(2-((2-(dimethylamino)ethyl)(methyl)amino)-5-((4-(4-fluoro-2-(fluoromethyl)-1-isopropyl-1H-benzo[d]imidazole-6-yl)pyrimidin-2-yl)amino)-4-methoxyphenyl)acrylamide]	–	1 to 50 nM	< 1 nM	100 to 400 nM	< 10 nM	–
C=CC(=O)Nc1cc(Nc2nccc(-c3cnc4nc(C)n(C(C)C)c4c3)n2)c(OC)cc1N(C)CCN(C)C [Example 22, N-(2-((2-(dimethylamino)ethyl)(methyl)amino)-5-((4-(1-isopropyl-2-methyl-1H-imidazo[4,5-b]pyridine-6-yl)pyrimidin-2-yl)amino)-4-methoxyphenyl)acrylamide]	10 to 100 nM	1 to 50 nM	1 to 50 nM	–	–	100 to 400 nM
C=CC(=O)Nc1cc(Nc2nccc(-c3ccc4nc(OC)n(C(C)C)c4c3)n2)c(OC)cc1N(C)CCN(C)C [Example 24, N-(2-((2-(dimethylamino)ethyl)(methyl)amino)-5-((4-(1-isopropyl-2-methoxy-1H-benzo[d]imidazole-6-yl)pyrimidin-2-yl)amino)-4-methoxyphenyl)acrylamide]	–	1 to 50 nM	1 to 50 nM	400 to 1000 nM	10 to 100 nM	–
C=CC(=O)Nc1cc(Nc2nccc(-c3ccc4oc(=O)n(C)c4c3)n2)c(OC)cc1N(C)CCN(C)C [Example 25, N-(2-((2-(dimethylamino)ethyl)(methyl)amino)-4-methoxy-5-((4-(3-methyl-2-oxo-2,3-di hydrobenzo[d]oxazole-5-yl)pyrimidin-2-yl)amino)phenyl)acrylamide]	–	1 to 50 nM	1 to 50 nM	> 1000 nM	100 to 400 nM	–
C=CC(=O)Nc1cc(Nc2nccc(-c3cc(F)c4cnn(C(C)C)c4c3)n2)c(OC)cc1N(C)CCN(C)C [Example 26, N-(2-((2-(dimethylamino)ethyl)(methyl)amino)-5-((4-(4-fluoro-1-isopropyl-1H-indazole-6-yl)pyrimidin-2-yl)amino)-4-methoxyphenyl)acrylamide]	–	1 to 50 nM	< 1 nM	400 to 1000 nM	10 to 100 nM	–
C=CC(=O)Nc1cc(Nc2nccc(-c3ccc4cnn(C(C)C)c4c3)n2)c(OC)cc1N(C)CCN(C)C [Example 27, N-(2-((2-(dimethylamino)ethyl)(methyl)amino)-5-((4-(1-isopropyl-1H-indazole-6-yl)pyrimidin-2-yl)amino)-4-methoxyphenyl)acrylamide]	–	1 to 50 nM	< 1 nM	400 to 1000 nM	10 to 100 nM	–
C=CC(=O)Nc1cc(Nc2nccc(-c3cc(F)c4nc(C)c(C(C)C)n4c3)n2)c(OC)cc1N(C)CCN(C)C [Example 28, N-(2-((2-(dimethylamino)ethyl)(methyl)amino)-5-((4-(8-fluoro-3-isopropyl-2-methylimidazo[1,2-a]pyridine-6-yl)pyrimidin-2-yl)amino)-4-methoxyphenyl)acrylamide]	–	1 to 50 nM	1 to 50 nM	400 to 1000 nM	10 to 100 nM	–
C=CC(=O)Nc1cc(Nc2nccc(-c3cc(F)c4nc(C)cn4c3)n2)c(OC)cc1N(C)CCN(C)C [Example 29, N-(2-((2-(dimethylamino)ethyl)(methyl)amino)-5-((4-(8-fluoro-2-methylimidazo[1,2-a]pyridine-6-yl)pyrimidin-2-yl)amino)-4-methoxyphenyl)acrylamide]	–	1 to 50 nM	1 to 50 nM	400 to 1000 nM	100 to 400 nM	–
C=CC(=O)Nc1cc(Nc2nccc(-c3cc(OC(C)(C)C)c4nc(C)n(C(C)C)c4c3)n2)c(OC)cc1N(C)CCN(C)C [Example 30, N-(5-((4-(4-(tert-butoxy)-1-isopropyl-2-methyl-1H-benzo[d]imidazole-6-yl)pyrimidin-2-yl)amino)-2-((2-(dimethylamino)ethyl)(methyl)amino)-4-methoxyphenyl)acrylamide]	–	< 1 nM	< 1 nM	> 1000 nM	< 10 nM	–
C=CC(=O)Nc1cc(Nc2nccc(-c3cc(F)c4nc(C)oc4c3)n2)c(OC)cc1N(C)CCN(C)C [Example 32, N-(2-((2-(dimethylamino)ethyl)(methyl)amino)-5-((4-(4-fluoro-2-methylbenzo[d]oxazole-6-yl)pyrimidin-2-yl)amino)-4-methoxyphenyl)acrylamide]	–	1 to 50 nM	1 to 50 nM	> 1000 nM	10 to 100 nM	–
C=CC(=O)Nc1cc(Nc2nccc(-c3cc(F)c4ocnc4c3)n2)c(OC)cc1N(C)CCN(C)C [Example 33, N-(2-((2-(dimethylamino)ethyl)(methyl)amino)-5-((4-(7-fluorobenzo[d]oxazole-5-yl)pyrimidin-2-yl)amino)-4-methoxyphenyl)acrylamide]	–	1 to 50 nM	< 1 nM	> 1000 nM	10 to 100 nM	–
C=CC(=O)Nc1cc(Nc2ncc(F)c(-c3cc(F)c4nc(C)c(C(C)C)n4c3)n2)c(OC)cc1N(C)CCN(C)C [Example 34, N-(2-((2-(dimethylamino)ethyl)(methyl)amino)-5-((5-fluoro-4-(8-fluoro-3-isopropyl-2-methylimidazo[1,2-a]pyridine-6-yl)pyrimidin-2-yl)amino)-4-methoxyphenyl)acrylamide]	–	1 to 50 nM	< 1 nM	> 1000 nM	10 to 100 nM	–
C=CC(=O)Nc1cc(Nc2nccc(-c3ccc4nc(C)n(C(C)C)c4c3)n2)c(OC)cc1N(C)CCN(C)C [Example 35, N-(2-((2-(dimethylamino)ethyl)(methyl)amino)-5-((4-(1-isopropyl-2-methyl-1H-benzo[d]imidazole-6-yl)pyrimidin-2-yl)amino)-4-methoxyphenyl)acrylamide]	–	1 to 50 nM	< 1 nM	400 to 1000 nM	10 to 100 nM	–
C=CC(=O)Nc1cc(Nc2nccc(-c3cc(F)c4[nH]ncc4c3)n2)c(OC)cc1N(C)CCN(C)C [Example 38, N-(2-((2-(dimethylamino)ethyl)(methyl)amino)-5-((4-(7-fluoro-1H-indazole-5-yl)pyrimidin-2-yl)amino)-4-methoxyphenyl)acrylamide]	–	1 to 50 nM	< 1 nM	> 1000 nM	10 to 100 nM	–
C=CC(=O)Nc1cc(Nc2nccc(-c3cc(F)c4nn(C)cc4c3)n2)c(OC)cc1N(C)CCN(C)C [Example 40, N-(2-((2-(dimethylamino)ethyl)(methyl)amino)-5-((4-(7-fluoro-2-methyl-2H-indazole-5-yl)pyrimidin-2-yl)amino)-4-methoxyphenyl)acrylamide]	–	1 to 50 nM	< 1 nM	400 to 1000 nM	10 to 100 nM	–
C=CC(=O)Nc1cc(Nc2nccc(-c3cc(F)c4nn(C)c(C(C)C)c4c3)n2)c(OC)cc1N(C)CCN(C)C [Example 41, N-(2-((2-(dimethylamino)ethyl)(methyl)amino)-5-((4-(7-fluoro-3-isopropyl-2-methyl-2H-indazole-5-yl)pyrimidin-2-yl)amino)-4-methoxyphenyl)acrylamide]	–	< 1 nM	< 1 nM	100 to 400 nM	< 10 nM	–
C=CC(=O)Nc1cc(Nc2nccc(-c3ccc4nn(C)c(C(C)C)c4c3)n2)c(OC)cc1N(C)CCN(C)C [Example 42, N-(2-((2-(dimethylamino)ethyl)(methyl)amino)-5-((4-(3-isopropyl-2-methyl-2H-indazole-5-yl)pyrimidin-2-yl)amino)-4-methoxyphenyl)acrylamide]	–	< 1 nM	< 1 nM	100 to 400 nM	< 10 nM	–
C=CC(=O)Nc1cc(Nc2nccc(-c3ccc4nccn4n3)n2)c(OC)cc1N(C)CCN(C)C [Example 43, N-(2-((2-(dimethylamino)ethyl)(methyl)amino)-5-((4-(imidazo[1,2-b]pyridazine-6-yl)pyrimidin-2-yl)amino)-4-methoxyphenyl)acrylamide]	–	50 to 100 nM	1 to 50 nM	> 1000 nM	100 to 400 nM	–
C=CC(=O)Nc1cc(Nc2nccc(-c3cc4c5c(c3)n(C(C)C)c(=O)n5CCC4)n2)c(OC)cc1N(C)CCN(C)C [Example 44, N-(2-((2-(dimethylamino)ethyl)(methyl)amino)-5-((4-(1-isopropyl-2-oxo-1,2,5,6-tetrahydro-4H-imidazo[4,5,1-ij]quinolin-8-yl)pyrimidin-2-yl)amino)-4-methoxyphenyl)acrylamide]	–	1 to 50 nM	< 1 nM	400 to 1000 nM	< 10 nM	–
